Test [1] concerns apoptosis pathway genes in HRPTC. The test can be described thus: Apoptosis pathway PCR array in H/R HRPTC. Format: cell-based, human. As to the method:
(§1) Apoptosis Pathway PCR Array and Caspase7 Real Time PCR: Two groups of HRPTC (vehicle and 10^−6 M CRRL269) that underwent oil induced H/R, and a negative control (Neg Ctrl) group with no H/R stress, were cultured in 6-well plates as described above, and total RNA was collected using the Trizol method (Thermo Fisher Scientific; Waltham, Mass.). RNA was reverse transcribed for cDNA for PCR RT2 array experiments. Apoptosis pathway PCR array (Qiagen; Germantown, Md.) was conducted using the SYBR green (Bio-Rad Laboratories; Hercules, Calif.) method in a Lightcycler 480 (Roche Diagonostics; Indianapolis, Ind.). Raw data were analyzed with the online Qiagen RT2 PCR analysis program. […] A Caspase7 RT-PCR primer (PPH00110C-200, Qiagen) was obtained, and RT-PCR reactions were performed using the SYBR green method in a Lightcycler 480. The B2M gene (primer PPH01094E, Qiagen) was used for normalization.

The test system of test [2] is ischemic AKI model in normal mongrel canines. Briefly: CNP levels (RIA) and renal NPPC mRNA (RT-PCR) in canine AKI. Format: in vivo.
Test [3] relates to Caspase7 gene. The test can be described thus: Caspase7 real time PCR in H/R HRPTC. The format is cell-based, human. The note with it: H/R with 10^−6 M CRRL269, H/R alone 1.89 fold, normalized to B2M. As to the method:
as §1
Background: Quantitative PCR measures a nucleic acid by following its amplification.

The subject of test [4] is ischemic AKI model in normal mongrel canines. The test can be described thus: Ischemic AKI in canines: hormonal and renal function. Format: in vivo, canine.
Where [5] appears, read: 16.3 pmol/kg/min infusion for 2 hours after ACC, vs vehicle.
Where [6] appears, read: 16.3 pmol/kg/min, compared to vehicle.
Where [7] appears, read: postischemia phases, 16.3 pmol/kg/min, vs vehicle.

Positions of bridges follow the written chain, without caps; N, C: chain ends. Residues, ends and D or L forms follow the SMILES beside them.

With `CC[C@H](C)[C@@H]1NC(=O)[C@H](CCCNC(=N)N)NC(=O)[C@H](CC(=O)O)NC(=O)[C@H](CCSC)NC(=O)[C@H](CCCCN)NC(=O)[C@H](CCCNC(=N)N)NC(=O)CNC(=O)[C@H](Cc2ccccc2)NC(=O)[C@@H](NC(=O)[C@H](CO)NC(=O)[C@H](CO)NC(=O)[C@H](CCCNC(=N)N)NC(=O)[C@H](CCCNC(=N)N)NC(=O)[C@H](CC(C)C)NC(=O)[C@H](CO)NC(=O)[C@H](CCCNC(=N)N)NC(=O)[C@@H]2CCCN2C(=O)[C@H](C)NC(=O)[C@@H](N)[C@@H](C)O)CSSC[C@@H](C(=O)N[C@@H](CC(N)=O)C(=O)N[C@@H](CO)C(=O)N[C@@H](Cc2ccccc2)C(=O)N[C@@H](CCCNC(=N)N)C(=O)N[C@@H](Cc2ccc(O)cc2)C(=O)O)NC(=O)CNC(=O)[C@H](CC(C)C)NC(=O)CNC(=O)[C@H](CO)NC(=O)[C@H](CO)NC(=O)[C@H](CO)NC(=O)[C@H](CO)NC1=O` [CRRL269] (H-TAPRSLRRSSCFGRKMDRISSSSGLGCNSFRY-OH; disulfide 11-27), the “Caspase7 gene down-regulation in PCR array” value in test [1] (10^−6 M CRRL269) is on record as “at least two-fold”. Besides, in test [1] (10^−6 M CRRL269, 84-gene array), the “number of apoptosis pathway genes down-regulated at least 2 fold” value is 8 out of 84. Also, the “cortical NPPC gene expression levels (RT-PCR)” value in test [2] (AKI canine renal cortex, normalized to GAPDH, vs vehicle) was “elevated”. In addition, the “urinary CNP levels” value in test [2] (AKI canines, 16.3 pmol/kg/min infusion, compared to vehicle) is “increased”. Further, the “Caspase7 gene expression level (RT-PCR)” value in test [3] is recorded as 1.25 fold. In test [4] (setting [5]), the “plasma cGMP levels” value is recorded as “increased” and the “urinary cGMP levels” value was “increased”. Moreover, the “renal parenchyma cGMP levels” value in test [4] (16.3 pmol/kg/min infusion for 2 hours, ex vivo cortex and medulla) was “increased”. In test [4] (setting [6]), the “urinary sodium excretion (UNaV), natriuresis” value is on record as “significantly induced” and the “urine output (UV), diuresis” value was “significantly induced”. The “plasma (circulating) ANGII levels” value in test [4] (post-ischemia CL1 to CL4, 16.3 pmol/kg/min, vs vehicle) was “significantly reduced”. In test [4] (setting [7]), the “glomerular filtration rate (GFR)” value was “maintained” and the “renal blood flow (RBF)” value was “maintained”.

For the origin of these results see patent publication US20220155322A1, “USE OF NATRIURETIC PEPTIDES TO ASSESS AND TREAT ACUTE KIDNEY INJURY” (Mayo Foundation for Medical Education and Research, priority 2019, published 2022).
